Experimental data published in paper PMC5968561, “An effective strategy for recapitulating N-terminal heptad repeat trimers in enveloped virus surface glycoproteins for therapeutic applications” (Chemical Science, 2015).
Read-outs that look alike come from different tables or passages of the source. Positions of bridges follow the written chain, without caps; N, C: chain ends. Chains are numbered I, II in the order given.

Tests used:
[1] = tested on: HIV-1 Env-mediated cell–cell fusion; conditions: read-out: EC50 for inhibiting cell–cell fusion; HL2/3 and TZM-bl cells coincubated 6–8 h, 37°C, luciferase; triplicate, mean ± SD
Experimental: Cell-cell fusion assay. Cell-cell fusion assays were performed as described previously.1 HL2/3 cells, which stably
express HIV Gag, Env, Tat, Rev, and Nef proteins, as well as TZM-bl cells, which stably express large amounts of CD4
and CCR5, were obtained from the NIH AIDS Reference and Reagent Program (contributed by Drs. Barbara Felber and
George Pavlakis and Drs. John C. Kappes and Xiaoyun Wu, respectively). TZM-bl cells (2.5 × 10^4/well) and HL2/3 cells
(7.5 × 10^4/well) were coincubated in 96-well plates (Corning Costar) at 37°C in 5% CO2 in the presence of different
concentrations of inhibitors. After incubation for 6–8 h, the medium was aspirated, the cells were washed and lysed, and
luciferase activity was measured using the Luciferase Assay System (Promega, Madison, WI) on a SpectraMax M5 plate
reader (Molecular Devices, Sunnyvale, CA).

[2] = tested on: HIV-1IIIB; type: cell-based
[3] = tested on: HIV-1 NL4-3 (36G)V38A/N42T; conditions: read-out: EC50, NL4-3 mutant (36G)V38A/N42T; T20-resistant strain; triplicate, mean ± SD
[4] = tested on: HIV-1 NL4-3 (36G)V38E/N42S; conditions: read-out: EC50, NL4-3 mutant (36G)V38E/N42S; T20-resistant strain; triplicate, mean ± SD
[5] = tested on: 93IN101 (C, R5); type: cell-based, HIV-1
Experimental: (§1) HIV-1 infection assay. To measure the inhibitory activity of the peptides on infection of R5 primary HIV-1 isolates, US4/GS 007 (subtype B), 93IN101 (subtype C), and 92TH009 (subtype A/E), 50 µl of an inhibitor at graded concentration in triplicate was incubated with the same volume of a primary HIV-1 isolate at 100 TCIID50 at 37 °C for 30 min, followed by addition of 100 µl of CEMx174 5.25M7 cells (5×10^5/ml). After incubation at 37 °C overnight, the culture medium was replaced with fresh medium without inhibitor. On day 7 postinfection, the culture supernatants were collected for measuring p24 by ELISA, and the percent inhibition and EC50 values were calculated using Calcusyn

[6] = tested on: US4/GS 007 (B, R5); assay: Infection by primary HIV-1 isolate, p24 ELISA; type: cell-based; conditions: CEMx174 5.25M7 cells, 100 TCID50, p24 ELISA day 7; triplicate, mean ± SD; read-out: EC50 for inhibiting US4/GS 007 (B, R5)
Experimental: as §1

[7] = tested on: 92TH009 (A/E, R5); assay: Infection by primary HIV-1 isolate, p24 ELISA; type: cell-based; conditions: CEMx174 5.25M7 cells, 100 TCID50, p24 ELISA day 7; triplicate, mean ± SD; read-out: EC50 for inhibiting 92TH009 (A/E, R5)
Experimental: as §1

[8] = tested on: HIV-1BaL; type: cell-based
[9] = tested on: HIV-1 NL4-3 (36G)V38A; conditions: read-out: EC50, NL4-3 mutant (36G)V38A; T20-resistant strain; triplicate, mean ± SD
[10] = tested on: HIV-1 NL4-3(D36G); assay: Activity against T20-sensitive strain; type: cell-based; conditions: triplicate, mean ± SD, read-out: EC50, NL4-3 mutant D36G
[11] = Cytotoxicity, XTT assay; type: cell-based; conditions: human, MT-2 cells, 4 days at 37°C, triplicate, mean ± SD
[12] = Sedimentation velocity analysis (SVA); type: physicochemical; set-up: Sedimentation coefficient: unit not given here; conditions: 120 μM in PBS pH 7.4, 60,000 rpm, 20 °C
Experimental: Sedimentation velocity analysis (SVA). All measurements were performed on a ProteomelabTMXL-A/XL-I analytical ultracentrifuge (Beckman Coulter, Fullerton, CA, USA) at 20 °C, as described previously. In brief, three-channel cells were used with an An-60 Tirotor. Lyophilized N-peptides were resuspended in ddH2O (pH 7.0) at ~1 mg/mL. The individual proteins and their mixtures with an equimolar amount of C34 peptide were prepared in PBS and incubated at 37 °C for 30 min. All samples were prepared at a final concentration of 120 μM and were initially scanned at 3000 rpm for 10 min to identify the appropriate wavelength for data collection. Data were collected at 60,000 rpm at a wavelength […]
of 280 nm. […]

[13] = Metabolic stability in liver homogenate; type: in vitro ADME; conditions: SD rat, pooled from 3 rats, 4 mL Tris–HCl 50 mM pH 7.4 per g, 9,000 g supernatant, 10 μg/mL, 37°C, 0-120 min, LC-MS/MS, compared with T20
[14] = biological target: proteinase K (Parengyodontium album, UniProt P06873); assay: Metabolic stability in proteinase K solution; type: in vitro ADME; conditions: 10 μg/mL, LC-MS/MS, compared with T20
proteinase K, sequence (P06873 106-384): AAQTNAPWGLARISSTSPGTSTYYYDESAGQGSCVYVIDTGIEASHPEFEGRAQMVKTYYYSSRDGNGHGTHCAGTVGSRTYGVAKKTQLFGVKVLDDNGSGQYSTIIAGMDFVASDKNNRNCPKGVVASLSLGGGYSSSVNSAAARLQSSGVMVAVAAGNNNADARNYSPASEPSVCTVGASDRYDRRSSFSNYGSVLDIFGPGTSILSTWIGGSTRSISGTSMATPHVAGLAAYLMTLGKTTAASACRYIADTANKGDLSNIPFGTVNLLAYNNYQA
Experimental: (§2) Tricine-sodium dodecyl sulfate-polyacrylamide gel electrophoresis (Tricine-SDS-PAGE). Polyacrylamide gels (12%) and a BayGene Mini Cell were used for Tricine-SDS-PAGE. The cathode buffer consisted of 0.1 M Tricine, 0.1 M Tris, and 1% SDS, and the anode buffer was 0.2 M Tris. After incubation at 37 °C for 0–24 h, the samples were mixed with Tris-SDS-glycine sample buffer (Invitrogen, Carlsbad, CA) at a ratio of 1:1 and then loaded onto the gels (20 μL/well). Gel electrophoresis was first carried out at a constant voltage of 60 V at room temperature for 1 h and then carried out at a constant voltage of 120 V at room temperature for 2 h. The gel was then stained with Bio-Rad Bio-Safe […]
(§3) Binding assays by size-exclusion chromatography. C34 was mixed with N-peptides (final concentration = 0.20 mM) at a molar ratio of 1:1 in PBS (pH 7.4) and incubated at 37 °C for 30 min. The peptide or peptide mixture (20 μL) was applied to a Phenomenex BioSep-SEC-s2000, 300 mm × 7.80 mm HPLC column equilibrated with PBS (pH 7.4) and eluted at 0.6 mL/min, and the fractions were monitored at 210 nm. Column pressure was 3.5 Mpa.
(§4) Qualification assay. Chromatographic analyses were performed using an ODS-C8 column (5 μm, 100 mm × 2.0mm ID) kept at ambient temperature. The mobile phase was composed of acetonitrile-water-formic acid in the ratio of 60:40:0.1 (v/v/v) at a flow rate of 0.3 mL/min. […]

[15] = Metabolic stability in rat plasma; type: in vitro ADME; conditions: 10 μg/mL, LC-MS/MS, compared with T20
Experimental: as §2, §3, §4

[16] = Metabolic stability in kidney homogenate; type: in vitro ADME; conditions: SD rat, pooled from 3 rats, 4 mL Tris–HCl 50 mM pH 7.4 per g, 9,000 g supernatant, 10 μg/mL, 37°C, 0-120 min, LC-MS/MS, compared with T20
[17] = CD spectroscopy and CD thermal denaturation; type: physicochemical; conditions: 10 μM peptide in PBS pH 7.4
Excerpt: software as described above. 2
Circular dichroism (CD) spectroscopy.

[18] = triplicate, mean ± SD, read-out: EC50 for inhibiting HIV-1IIIB infection
[19] = CEMx174 5.25M7 cells, 100 TCID50, p24 ELISA day 7, triplicate, mean ± SD, read-out: EC50 for inhibiting 93IN101 (C, R5)
[20] = triplicate, mean ± SD, read-out: EC50 for inhibiting HIV-1BaL infection

Substance | EC50 [1] [nM] | EC50 [3] [nM] | EC50 [4] [nM] | EC50 [6] [nM] | EC50 [7] [nM] | EC50 [9] [nM] | EC50 [10] [nM] | CC50 at 96 h [11] [nM] | EC50 [2, 18] [nM] | EC50 [5, 19] [nM] | EC50 [8, 20] [nM] | also measured
Enfuvirtide | 1.2 ± 0.01 | 539 ± 33 | > 2000 | 20.4 ± 2.9 | 19 ± 0.5 | 620 ± 103 |  |  |  |  |  | EC50 [2]: 57.8 ± 3.2 nM; EC50 [5]: 22.1 ± 0.9 nM; EC50 [8]: 34.1 ± 9.4 nM
I: Ac-SEIVKKINNIERAIEAQQHLLQLTVWGIKQLQARIL-NH2 / II: Ac-SEIVKKINNIERAIEAQQHLLQLTVWGIKQLQARIL-NH2 / III: Ac-SEIVKKINNIERAIEAQQHLLQLTVWGIKQLQARIL-NH2 (amide I:6-III:11, I:11-II:6, II:11-III:6) [(N36MEK1)3] | 59 ± 8.7 | 71 ± 6.1 | 22.2 ± 2.8 | 29.2 ± 11.2 | 14.5 ± 4.1 | 126 ± 31 | 106 ± 16 | 17300 ± 1600 | 11.2 ± 4.9 | 20.1 ± 5.6 | 74.3 ± 6.5 | 
I: Ac-SEIVKKINNIERAIEAQQKLLQLTVWGIKQLQARIL-NH2 / II: Ac-SEIVKKINNIERAIEAQQKLLQLTVWGIKQLQARIL-NH2 / III: Ac-SEIVKKINNIERAIEAQQKLLQLTVWGIKQLQARIL-NH2 (amide I:6-III:11, I:11-II:6, II:11-III:6) [(N36MEK2)3] | 27.1 ± 2.5 | 8.1 ± 1.2 | 4.9 ± 2.9 | 7.1 ± 2.5 | 1.5 ± 0.6 | 21.7 ± 2.3 | 19.4 ± 1.9 | 18900 ± 2600 | 4.7 ± 0.6 | 5.2 ± 0.9 | 20.4 ± 2.5 | 
I: Ac-SGIVQKINNIERAIEAQQHLLQLTVWGIKQLQARIL-NH2 / II: Ac-SGIVQKINNIERAIEAQQHLLQLTVWGIKQLQARIL-NH2 / III: Ac-SGIVQKINNIERAIEAQQHLLQLTVWGIKQLQARIL-NH2 (amide I:6-III:11, I:11-II:6, II:11-III:6) [(N36M)3] | 4 ± 0.4 | 10.2 ± 1.3 | 6 ± 3.7 | 9.4 ± 1.2 | 1.5 ± 0.1 | 14.5 ± 1.5 | 20.2 ± 2.7 | > 50000 | 2.67 ± 0.1 | 5.9 ± 2 | 8.6 ± 3.1 | Sedimentation coefficient ([12]; 280 nm, SEDFIT): 1.39; Observed molecular mass (SVA) ([12]; oligomeric state): 12.5 kDa; Metabolic stability in liver homogenate [13]: dramatically increased in vitro metabolic stability over T20; Metabolic stability in proteinase K solution [14]: dramatically increased in vitro metabolic stability over T20; Metabolic stability in rat plasma [15]: dramatically increased in vitro metabolic stability over T20; Metabolic stability in kidney homogenate [16]: dramatically increased in vitro metabolic stability over T20; Tm (thermal unfolding transition) ([17]; CD at 222 nm, 15 to 90 °C at 2 °C/min): > 90 °C; Helicity ([17]; CD, mean residue ellipticity at 222 nm): 82%
